One test deals with senescent cells. Put plainly: Senolytic activity in old mice (senescent-associated β-galactosidase staining). The test is classed as in vivo, C57BL/6J female mice. Conditions: ~26 month female mice, 10 mg/kg i.p., versus vehicle. The procedure:
Lung and liver samples frozen in optimal cutting temperature (OCT) were cryosectioned (15 μM) and frozen sections fixed in ice-cold 0.5% Glutaraldehyde (w/v, PBS) for 15 min and washed 1 mM MgCl2/PBS (pH 6.0) for 5 min. β-galactosidase activity was stained for with X-gal staining solution (1 mg ml^−1 X-gal, ThermoFisher Scientific, 5 mM K3(Fe(CN)6), 5 mM K4(Fe(CN)6)) for 18 h at 37° C. Slides were dehydrated and coverslips mounted prior to being imaged using 20× brightfield objective on Zeiss AxioScan Z.1 slide scanner. ImageJ was used to quantify staining by measuring the β-gal stained area as a percentage of the total tissue area excluding luminal spaces.

The nature of test [1]: Liver lipids (Oil Red O) and blood glucose in the same cohort of old mice. The conditions noted are these: 10 mg/kg i.p. It counts as in vivo, C57BL/6J female mice. As to the method: (§1) For analysis of immune cell composition in whole blood, tail-vein blood was collected 2 days after last treatment. Whole blood was diluted in saline to a volume of […] and ran on a Sysmex XE2100 automated cell counter. Blood glucose levels were determined by collecting whole-blood from tail vein into heparinised tubes (Abraxis), 120-140 μL of whole-blood to be loaded onto a comprehensive diagnostic profile reagent rotor (Abraxis) and run on a VetScan VS2 Chemistry Analyzer (Abraxis: 500-7123).
Oil Red O staining for lipids was carried out on liver tissue in OCT was snap-frozen in liquid N2 and cryosectioned (15 μM). Sections were equilibrated to RT for 10 min and then stained with 0.5% Oil Red O solution (w/v, in isopropanol, Sigma, O1391) for 5 min, rinsed in tap water and counterstained with Mayer's hematoxylin for 30 s. Then sections were again rinsed in tap water for 30 min and coverslips mounted. Images were acquired on Zeiss AxioScan Z.1 and ImageJ quantification of Oil-red stain area relative to background tissue area performed for 3 fields per section.
To understand what effects are associated with the treatment with NMT inhibitors in vivo, we analysed different parameters in the same cohort of old mice described in FIG. 17A. First, we looked into the accumulation of lipid droplets in the liver using Oil Red O staining. These are an indication of hepatic steatosis, and importantly, elimination of senescent cells has been previously shown capable to reduce steatosis.
Other pathological change observed in old mice is the presence of increased levels of glucose in blood. This can be related with diabetes or metabolic disease. Importantly, both pathologies have been associated with the presence of senescent cells.

The nature of test [2]: Blood markers (Vetscan) in a separate cohort of old mice. It counts as in vivo, female C57/BL6 mice. The conditions noted are these: ~19 mo females, before 4th round, Compound 2 10 mg/kg, Compound 3 25 mg/kg, versus vehicle. The procedure: Blood was collected prior to each round of injection for physiological assessments. Mice were allowed to rest 4 weeks prior to being culled and organs collected for freezing in OCT, paraffin embedding and snap-freezing for RNA extraction.
as §1
Further experiments were performed on a separate cohort of old mice. […] This regimen was repeated 4 more times and blood was collected for Vetscan measurements prior to the 4th round of treatment (FIG. 19). At that stage, ~19 mo females presented elevated levels of ALT, amylase and glucose in blood when compared with young mice (FIG. 20A).

A further test relates to IMR90 cells. As to the kind of experiment: Senolytic survival assay, doxorubicin-induced senescence. The test is classed as cell-based, human. Conditions: doxorubicin or DMSO; compounds added 7 days after induction; read 7 days later; FIGS. 3A-B. As to the method:
IMR90 cells were used to generate inducible ER:RAS (hereinafter iRAS) cells to model Oncogene induced senescence (OIS), through retroviral infection of pLNC-ER:RAS-neo into IMR90 cells followed by selection with Neomycin. IMR90 cells containing the pLNC-ER:RAS plasmid backbone pLXSN were infected in parallel to assess leakiness in the pLNC-ER:RAS system. Treatment with 100 nM 4OHT (Sigma, in DMSO) was used to induce IMR90 ER:RAS cells to undergo oncogene induced senescence (OIS). […]
High-throughput microscopy survival assay—To assess senolytic effect of drugs, cells were cultured for 7 days, culture media was changed to DM0.5 media and drugs in DMSO were added (<5% v/v final concentration), drugs were replenished after 3 days if assay length was longer than 72 h. […] Image acquisition of DAPI stained cells was performed on an automated InCell Analyser 2000 (GE Healthcare®) and high-content analysis on the InCell Investigator 2.7.3 software used to quantify number of DAPI positive cells per well. […] Survival was measured as cell counts relative to DMSO treated quiescent or senescent cells.
IMR90 cells were treated with doxorubicin (to induce senescence), or DMSO (as a control). […] Senolytic activity of inhibitors was determined 7 days after adding the drugs with replenishment after 3 days, cells were fixed, imaged and cells numbers were quantified using high throughput microscopy. […]

`Cc1c(NS(=O)(=O)c2c(Cl)cc(-c3ccnc(N4CCNCC4)c3)cc2Cl)c(CC(C)C)nn1C` [Compound 2]: the “Senescent cells in livers (senescent-associated β-galactosidase staining)” value in the test with senescent cells (FIG. 17B) is listed as “lower levels of senescent cells”. In addition, the “Senescent cells in lungs (senescent-associated β-galactosidase staining)” value in the test on senescent cells (FIG. 17C) is given as “lower levels of senescent cells”. In addition, the “Glucose in blood, fasted mice” value in test [1] (old mice fasted, FIG. 18C) is on record as “lower levels of glucose”. In addition, in test [1] (old mice kept fed, FIG. 18B), the “Glucose in blood, fed mice” value is “lower levels of glucose”. Further, in test [1] (~26 month female mice, FIG. 18A), the “Accumulation of lipids in the liver (Oil Red O staining)” value is reported as “reduced accumulation of lipids in the liver”. Moreover, in test [2] (FIG. 20A), the ALT in blood entry is listed as “lower level”. Moreover, the Amylase in blood result in test [2] (FIG. 20B) is on record as “lower level”. Further, the Glucose in blood result in test [2] (FIG. 20C) is on record as “lower level”.

Turning to `Cc1nn(C)c(C)c1CCOc1c(-c2ccc3c(c2)c(CN(C)C)nn3C)ccc(F)c1F` [Compound 1, 1-(5-(3,4-difluoro-2-(2-(1,3,5-trimethyl-1H-pyrazol-4-yl)ethoxy)phenyl)-1-methyl-1H-indazol-3-yl)-N,N-dimethylmethanamine], in the test on IMR90 cells, the “Survival (cell counts relative to DMSO), senescent versus control cells” value was “selectively kill senescent cells induced to senescence by doxorubicin”.

Values taken from patent US12691100B2, “NMT inhibitor treatment of a senescence-associated disease or disorder of the liver” (Imperial College Innovations Limited, priority 2020, dated 2026).
